Series [1] relates to recombinant NL4-3 virus (nef section replaced with Renilla luciferase gene) in MT-2 cells. As to the kind of experiment: HIV cell culture assay (antiviral activity, luciferase readout). In kind it is cell-based. Particulars: Renilla, NL43, MT-2 cells infected for 4-5 days with recombinant NL4-3 Renilla luciferase virus. Summed up:
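Compound activity was measured as reduction of luciferase in MT-2 cells infected for 4-5 days with serially diluted compound present. EC50 values were calculated with the median effect equation.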

A short description of series [2]: Compound cytotoxicity, XTT-based colorimetric assay. In kind it is cell-based. Particulars: human; uninfected MT2 cells, day 4, XTT; read-out: CC50. Put shortly:
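Uninfected MT2 cells, antiviral-assay protocol without virus; XTT colorimetric readout day 4; CC50 reported.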

As to `CS(=O)(=O)Nc1nn(CCN2C[C@H](F)C[C@H](F)C2)c2c(-n3c([C@H](Cc4cc(F)cc(F)c4)NC(=O)Cn4nc(C5CC5)c5c4C[C@@H]4C[C@H]54)nc4nc(C5CCC(F)(F)CC5)cc(C5CC5)c4c3=O)ccc(Cl)c12` (atropisomer, axis not shown; (P)) [Example 327, N-[(1S)-1-[(3P)-3-(4-chloro-1-{2-[(3R,5S)-3,5-difluoropiperidin-1-yl]ethyl}-3-methanesulfonamido-1H-indazol-7-yl)-5-cyclopropyl-7-(4,4-difluorocyclohexyl)-4-oxo-3H,4H-pyrido[2,3-d]pyrimidin-2-yl]-2-(3,5-difluorophenyl)ethyl]-2-[(2S,4S)-9-cyclopropyl-7,8-diazatricyclo[4.3.0.0^2,^4]nona-1(6),8-dien-7-yl]acetamide], the EC50 in series [1] was determined as 0.008 nM. Moreover, the CC50 at 4 days in series [2] was greater than 50 nM.
With `COCCCn1nc(NS(C)(=O)=O)c2c(Cl)ccc(-n3c([C@H](Cc4cc(F)cc(F)c4)NC(=O)Cn4nc(C(F)F)c5c4C(F)(F)[C@@H]4C[C@H]54)nc4nc(C5CCC(F)(F)CC5)cc(C5CC5)c4c3=O)c21` (atropisomer, axis not shown; (P)) [Example 375, N-[(1S)-1-[(3P)-3-[4-chloro-3-methanesulfonamido-1-(3-methoxypropyl)-1H-indazol-7-yl]-5-cyclopropyl-7-(4,4-difluorocyclohexyl)-4-oxo-3H,4H-pyrido[2,3-d]pyrimidin-2-yl]-2-(3,5-difluorophenyl)ethyl]-2-[(2S,4R)-9-(difluoromethyl)-5,5-difluoro-7,8-diazatricyclo[4.3.0.0^2,^4]nona-1(6),8-dien-7-yl]acetamide], the EC50 in series [1] turned out to be 0.014 nM. Moreover, the cytotoxic concentration (CC50) at 4 days in series [2] is greater than 20 nM.
For `Cc1cc(C2CCC(F)(F)CC2)nc2nc([C@H](Cc3cc(F)cc(F)c3)NC(=O)Cn3nc(C(F)F)c4c3C(F)(F)[C@@H]3C[C@H]43)n(-c3ccc(Cl)c4c(NS(C)(=O)=O)nn(CCN5CCC(F)(F)CC5)c34)c(=O)c12` (atropisomer, axis not shown; (P)) [Example 128, N-[(1S)-1-[(3P)-3-{4-chloro-1-[2-(4,4-difluoropiperidin-1-yl)ethyl]-3-methanesulfonamido-1H-indazol-7-yl}-7-(4,4-difluorocyclohexyl)-5-methyl-4-oxo-3H,4H-pyrido[2,3-d]pyrimidin-2-yl]-2-(3,5-difluorophenyl)ethyl]-2-[(2S,4R)-9-(difluoromethyl)-5,5-difluoro-7,8-diazatricyclo[4.3.0.0^2,^4]nona-1(6),8-dien-7-yl]acetamide] the same measures were 0.013 nM and greater than 50 nM.
For `Cc1cc(C2CCC(F)(F)CC2)nc2nc([C@H](Cc3cc(F)cc(F)c3)NC(=O)Cn3nc(C4CC4)c4c3C[C@@H]3C[C@H]43)n(-c3ccc(Cl)c4c(NS(C)(=O)=O)nn(CCN5C[C@@H]6C[C@H]5CC6(F)F)c34)c(=O)c12` (atropisomer, axis not shown; (P)) [Example 311, N-[(1S)-1-[(3P)-3-(4-chloro-1-{2-[(1S,4S)-5,5-difluoro-2-azabicyclo[2.2.1]heptan-2-yl]ethyl}-3-methanesulfonamido-1H-indazol-7-yl)-7-(4,4-difluorocyclohexyl)-5-methyl-4-oxo-3H,4H-pyrido[2,3-d]pyrimidin-2-yl]-2-(3,5-difluorophenyl)ethyl]-2-[(2S,4S)-9-cyclopropyl-7,8-diazatricyclo[4.3.0.0^2,^4]nona-1(6),8-dien-7-yl]acetamide] the same measures were 0.013 nM and greater than 50 nM.
`COCCCn1nc(NS(C)(=O)=O)c2c(Cl)ccc(-n3c([C@H](Cc4cc(F)cc(F)c4)NC(=O)Cn4nc(C(F)F)c5c4C(F)(F)[C@@H]4C[C@H]54)nc4nc(C5CCC(F)(F)CC5)cc(NCCN5CCOCC5)c4c3=O)c21` (atropisomer, axis not shown; (P)) [Example 430, N-[(1S)-1-[(3P)-3-[4-chloro-3-methanesulfonamido-1-(3-methoxypropyl)-1H-indazol-7-yl]-7-(4,4-difluorocyclohexyl)-5-{[2-(morpholin-4-yl)ethyl]amino}-4-oxo-3H,4H-pyrido[2,3-d]pyrimidin-2-yl]-2-(3,5-difluorophenyl)ethyl]-2-[(2S,4R)-9-(difluoromethyl)-5,5-difluoro-7,8-diazatricyclo[4.3.0.0^2,^4]nona-1(6),8-dien-7-yl]acetamide]: the concentration giving a half-maximal response (EC50) in series [1] amounted to 0.011 nM. Besides, the 50% cytotoxic concentration (CC50) at 4 days in series [2] is greater than 20 nM.
For `Cc1cc(C2CCC(F)(F)CC2)nc2nc([C@H](Cc3cc(F)cc(F)c3)NC(=O)Cn3nc(C(F)F)c4c3C(F)(F)[C@@H]3C[C@H]43)n(-c3ccc(Cl)c4c(NS(C)(=O)=O)nn(CCN5CCOCC5)c34)c(=O)c12` (atropisomer, axis not shown; (P)) [Example 105, N-[(1S)-1-[(3P)-3-{4-chloro-3-methanesulfonamido-1-[2-(morpholin-4-yl)ethyl]-1H-indazol-7-yl}-7-(4,4-difluorocyclohexyl)-5-methyl-4-oxo-3H,4H-pyrido[2,3-d]pyrimidin-2-yl]-2-(3,5-difluorophenyl)ethyl]-2-[(2S,4R)-9-(difluoromethyl)-5,5-difluoro-7,8-diazatricyclo[4.3.0.0^2,^4]nona-1(6),8-dien-7-yl]acetamide] the same measures were 0.011 nM and greater than 50 nM.
`CS(=O)(=O)Nc1nn(CCOCC(F)(F)F)c2c(-n3c([C@H](Cc4cc(F)cc(F)c4)NC(=O)Cn4nc(C(F)F)c5c4C(F)(F)[C@@H]4C[C@H]54)nc4nc(C5CCC(F)(F)CC5)cc(C(F)F)c4c3=O)ccc(Cl)c12` (atropisomer, axis not shown; (P)) [Example 155, N-[(1S)-1-[(3P)-3-{4-chloro-3-methanesulfonamido-1-[2-(2,2,2-trifluoroethoxy)ethyl]-1H-indazol-7-yl}-7-(4,4-difluorocyclohexyl)-5-(difluoromethyl)-4-oxo-3H,4H-pyrido[2,3-d]pyrimidin-2-yl]-2-(3,5-difluorophenyl)ethyl]-2-[(2S,4R)-9-(difluoromethyl)-5,5-difluoro-7,8-diazatricyclo[4.3.0.0^2,^4]nona-1(6),8-dien-7-yl]acetamide]: the 50% effective concentration (EC50) in series [1] was found to be 0.027 nM. In addition, the CC50 at 4 days in series [2] was greater than 50 nM.
Take `COCCN(CCOC)C(=O)Cn1nc(NS(C)(=O)=O)c2c(Cl)ccc(-n3c([C@H](Cc4cc(F)cc(F)c4)NC(=O)Cn4nc(C5CC5)c5c4C[C@@H]4C[C@H]54)nc4nc(C5CCC(F)(F)CC5)cc(C)c4c3=O)c21` (atropisomer, axis not shown; (P)) [Example 387, 2-[(6P)-4-chloro-7-{2-[(1S)-1-{2-[(2S,4S)-9-cyclopropyl-7,8-diazatricyclo[4.3.0.0^2,^4]nona-1(6),8-dien-7-yl]acetamido}-2-(3,5-difluorophenyl)ethyl]-7-(4,4-difluorocyclohexyl)-5-methyl-4-oxo-3H,4H-pyrido[2,3-d]pyrimidin-3-yl}-3-methanesulfonamido-1H-indazol-1-yl]-N,N-bis(2-methoxyethyl)acetamide]: the EC50 in series [1] worked out at 0.039 nM. For the same compound, in series [2], the CC50 at 4 days was greater than 20 nM.
Consider `COCCNc1cc(C2CCC(F)(F)CC2)nc2nc([C@H](Cc3cc(F)cc(F)c3)NC(=O)Cn3nc(C(F)F)c4c3C(F)(F)[C@@H]3C[C@H]43)n(-c3ccc(Cl)c4c(NS(C)(=O)=O)nn(CCN5CCCC(F)(F)C5)c34)c(=O)c12` (atropisomer, axis not shown; (P)) [Example 416, N-[(1S)-1-[(3P)-3-{4-chloro-1-[2-(3,3-difluoropiperidin-1-yl)ethyl]-3-methanesulfonamido-1H-indazol-7-yl}-7-(4,4-difluorocyclohexyl)-5-[(2-methoxyethyl)amino]-4-oxo-3H,4H-pyrido[2,3-d]pyrimidin-2-yl]-2-(3,5-difluorophenyl)ethyl]-2-[(2S,4R)-9-(difluoromethyl)-5,5-difluoro-7,8-diazatricyclo[4.3.0.0^2,^4]nona-1(6),8-dien-7-yl]acetamide], for which, in series [1], the concentration for a half-maximal effect (EC50) is 0.012 nM. The CC50 at 4 days in series [2] is greater than 20 nM.
For the compound `Cc1cc(C2(F)CCC(F)(F)CC2)nc2nc([C@H](Cc3cc(F)cc(F)c3)NC(=O)Cn3nc(C4CC4)c4c3C[C@@H]3C[C@H]43)n(-c3ccc(Cl)c4c(NS(C)(=O)=O)nn(CCN5CCOC(C)(C)C5)c34)c(=O)c12` (atropisomer, axis not shown; (P)) [Example 585, N-[(1S)-1-[(3P)-3-{4-chloro-1-[2-(2,2-dimethylmorpholin-4-yl)ethyl]-3-methanesulfonamido-1H-indazol-7-yl}-5-methyl-4-oxo-7-(1,4,4-trifluorocyclohexyl)-3H,4H-pyrido[2,3-d]pyrimidin-2-yl]-2-(3,5-difluorophenyl)ethyl]-2-[(2S,4S)-9-cyclopropyl-7,8-diazatricyclo[4.3.0.0^2,^4]nona-1(6),8-dien-7-yl]acetamide], the half-maximal effective concentration (EC50) in series [1] came to 0.012 nM. Further, the cytotoxic concentration (CC50) at 4 days in series [2] was greater than 20 nM.
The like results for `Cc1cc(C2CCC(F)(F)CC2)nc2nc([C@H](Cc3cc(F)cc(F)c3)NC(=O)Cn3nc(C4CC4)c4c3C[C@@H]3C[C@H]43)n(-c3ccc(Cl)c4c(NS(C)(=O)=O)nn(CCN5C[C@H](F)C[C@H](F)C5)c34)c(=O)c12` (atropisomer, axis not shown; (P)) [Example 1, N-[(1S)-1-[(3P)-3-(4-chloro-1-{2-[(3R,5S)-3,5-difluoropiperidin-1-yl]ethyl}-3-methanesulfonamido-1H-indazol-7-yl)-7-(4,4-difluorocyclohexyl)-5-methyl-4-oxo-3H,4H-pyrido[2,3-d]pyrimidin-2-yl]-2-(3,5-difluorophenyl)ethyl]-2-[(2S,4S)-9-cyclopropyl-7,8-diazatricyclo[4.3.0.0^2,^4]nona-1(6),8-dien-7-yl]acetamide] were, in that order, 0.009 nM and greater than 50 nM.
